Measured values: patent US20210353706A1, “INHIBITION OF ENDOGENOUS REVERSE TRANSCRIPTASE AND TARGETING OF CELLS FOR PROPHYLAXIS AND THERAPY OF CANCER AND AGING” (Health Research, Inc., priority 2017, published 2021)

Tests used:
[1] = tested on: LINE1 elements; test: LINE1 retrotransposition assay (neo-resistant colonies after reporter plasmid transfection); type: cell-based; conditions: HeLa cells transfected with reporter plasmid
Experimental: FIG. 2 depicts a work-flow for a LINE1 retrotransposition assay as described in Moran et al. Cell 1996 87(5):917-27 (shown in box to the left).
Retrotransposition assay was performed according to Moran et al. Cell. 1996 87(5):917-27 (scheme shown to the left). HeLa cells were transfected with the reporter plasmid; appearance of neo-resistant colonies is indicative of retrotransposition events. […] It is accordingly expected that other RT inhibitors will have similar utility.

[2] = tested on: HeLa cells; test: Clonogenicity of HeLa cells; type: cell-based; conditions: indicated concentrations of stavudine
[3] = tested on: colorectal cancer cells HCT116; test: Acquisition of PALA-resistant colonies (CAD gene amplification); type: cell-based, human; conditions: for number of PALA resistant colonies: HCT116 grown in presence of indicated non-toxic concentrations of RT inhibitor
From the text: Gene amplification can be assessed by measuring the frequency of occurrence of cell variants resistant to N-phosphonoacetyl-L-aspartate (PALA), a small molecule inhibitor of aspartate transcarbamylase of CAD protein essential for UMP biosynthesis. In human cells, PALA resistance is associated almost solely with CAD overexpression due to amplification of the CAD gene. Therefore, this can serve as a quantitative indicator of gene amplification. Usually undetectable in normal cells, gene amplification frequency can be as high as 10-5 in tumor cells. The finding that p53 inactivation and DNA demethylation by decitabine both greatly increase the frequency of gene amplification support the possibility of involvement of retroelements (which are inhibited at the epigenetic level by p53 and DNA methylation) in this process.
Right panel illustrates the data shown in the graph as images of tissue culture plates treated and untreated with RT inhibitors in the presence and in the absence of PALA. Sensitivity of HCT116 cells to RT inhibitors alone were determined using quantitation of adherent cells following 72 hours of incubation in the presence of a range of concentrations of RT inhibitors (curves in the graph with the scale of cell viability shown on the right).

[4] = tested on: Th-MYCN transgenic mice (spontaneous neuroblastomas); test: Tumor relapse after chemotherapy in mouse spontaneous neuroblastoma model; type: in vivo
From the text: In particular, 100% of Th-MYCN transgenic mice (strain 129X1/SvJ-Tg(TH-MYCN)41Waw/Nci) homozygous for MYCN transgene develop spontaneous neuroblastomas in their abdomens around 30 days of age. Mice carrying this transgene show many of the features of the human childhood disease including sensitivity to conventional treatments. Indicated treatments were started at the times of first appearance of palpable tumors.

Cc1cn([C@H]2C=C[C@@H](CO)O2)c(=O)[nH]c1=O [stavudine]
concentrations at which stavudine is effective in inhibiting LINE1 retrotransposition [1]: above 5 mM
effect on clonogenicity of HeLa cells [2]: lack of effect
number of PALA resistant colonies [3]: greatly decreased
number of PALA resistant colonies ([3]; listed as STV): dramatically reduces
frequency of gene amplification in vitro ([3]; tumor cells in vitro): greatly reduced
antitumor effect of stavudine alone ([4]; 1.5 mg/ml in drinking water, no chemotherapy): no detectable antitumor effect
extension of average tumor-free survival ([4]; continuous stavudine 1.5 mg/ml in drinking water with cyclophosphamide and topotecan): nearly two-fold
proportion of disease free animals with no relapses detected within >100 days of observation ([4]; continuous stavudine with cyclophosphamide and topotecan): significantly increased
